Where “and” joins values, the source holds several entries; their conditions need not be identical. Equal entries are not always repeated.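 48-hour exposure; five concentrations; linearly interpolated endpoints. Abbreviation: GI50, concentration required for 50% inhibition of growth. TGI denotes the concentration required for complete inhibition of growth.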
Key:
Test in all cases: growth of human tumour cells (NCI), 48 h
K-562 leukemia = test system: K-562 leukemia
KM12 colon = test system: KM12 colon
LOX IMVI melanoma = test system: LOX IMVI melanoma
M14 melanoma = test system: M14 melanoma
MALME-3M melanoma = test system: MALME-3M melanoma
NCI/ADR-RES ovarian = test system: NCI/ADR-RES ovarian
OVCAR-4 ovarian = test system: OVCAR-4 ovarian
OVCAR-8 ovarian = test system: OVCAR-8 ovarian
SK-MEL-2 melanoma = test system: SK-MEL-2 melanoma
SK-MEL-5 melanoma = test system: SK-MEL-5 melanoma

Row | SMILES | GI50 (K-562 leukemia) | TGI (K-562 leukemia) | GI50 (KM12 colon) | TGI (KM12 colon) | GI50 (LOX IMVI melanoma) | TGI (LOX IMVI melanoma) | GI50 (M14 melanoma) | TGI (M14 melanoma) | GI50 (MALME-3M melanoma) | TGI (MALME-3M melanoma) | GI50 (NCI/ADR-RES ovarian) | TGI (NCI/ADR-RES ovarian) | GI50 (OVCAR-4 ovarian) | TGI (OVCAR-4 ovarian) | GI50 (OVCAR-8 ovarian) | TGI (OVCAR-8 ovarian) | GI50 (SK-MEL-2 melanoma) | TGI (SK-MEL-2 melanoma) | GI50 (SK-MEL-5 melanoma) | TGI (SK-MEL-5 melanoma)
1 | O=C(C(=O)c1cc(Br)ccc1O)c1cc(Br)ccc1O | 2.82 µM | > 100 µM | 3.21 µM | 11.4 µM | 3.48 µM | 13.6 µM | 4.96 µM | 20.1 µM | 2.24 µM | 6.12 µM | 3.36 µM | > 100 µM | 6.04 µM | > 100 µM | 7.46 µM | 40.5 µM | 3.88 µM | 13.3 µM | – | –
2 | NC(=O)c1ncn(C2OC(CO)C(O)C2O)c1N (configuration not stated) | – | – | > 100 µM | > 100 µM | > 100 µM | > 100 µM | > 100 µM | > 100 µM | > 100 µM | > 100 µM | > 100 µM | > 100 µM | > 100 µM | > 100 µM | 62.2 µM | > 100 µM | > 100 µM | > 100 µM | > 100 µM | > 100 µM
3 | C=C(Cl)[C@@](Cl)(CBr)CC[C@@H](Br)C(C)(C)Cl | 1.7 µM | > 100 µM and 23.5 µM | – | 2.36 µM and 0.689 µM | – | 39.4 µM and 34.3 µM | – | 40.9 µM and 28.8 µM | – | 42.9 µM | 3.05 µM | – | 2.29 µM | 7.36 µM and 3.15 µM | – | – | 0.552 µM | 2.72 µM and 1.85 µM | 19.5 µM | > 100 µM and 21.3 µM
4 | CN(C)c1ccc(C2CC(C)(O)Oc3cc4c(cc32)OCO4)cc1 (configuration not stated) | – | > 100 µM | – | > 100 µM | – | > 100 µM | – | > 100 µM | – | > 100 µM | – | > 100 µM | – | – | – | 94.7 µM | – | 63.8 µM | – | > 100 µM
5 | Cc1ccc(C2=C(Cl)C(=O)C(c3ccc(C)cc3)=C(Cl)C2=O)cc1 | – | > 100 µM | – | > 100 µM | – | > 100 µM | – | > 100 µM | – | > 100 µM | – | > 100 µM | – | > 100 µM | – | > 100 µM | – | – | – | > 100 µM
6 | O=C(N/N=C/c1ccc(F)cc1)c1ccc(C(F)(F)F)nc1Nc1cccc(C(F)(F)F)c1 | 1.07 µM | 5.02 µM | 1.38 µM | 3.76 µM | 0.522 µM | 2.17 µM | 0.916 µM | 10.1 µM | 1.28 µM | 4.68 µM | 1.28 µM | 6.58 µM | 0.339 µM | 6.55 µM | 1.7 µM | 6.62 µM | – | – | 1.62 µM | 4.48 µM
7 | O=C(Nc1ccc(C(F)(F)F)cc1[N+](=O)[O-])c1cccnc1 | – | > 100 µM | – | > 100 µM | – | > 100 µM | – | > 100 µM | – | 8.32 µM | – | > 100 µM | – | > 100 µM | – | – | – | > 100 µM | – | > 100 µM
8 | COc1ccc(Cc2nc3cc(OC)c(OC)cc3c(=O)[nH]2)cc1 | 34.3 µM | > 100 µM | 2.68 µM | 10.4 µM | 10.9 µM | > 100 µM | 4.13 µM | > 41.2 µM | 9.53 µM | 30.3 µM | 12.4 µM | 59 µM | 25.4 µM | > 100 µM | 13 µM | > 100 µM | – | – | 9.33 µM | 28.8 µM
9 | COc1cc2cc3c(c(O)c2c(O)c1-c1c(OC)cc2cc4c(c(O)c2c1O)C(=O)O[C@H](C)C4)C(=O)O[C@H](C)C3 | > 100 µM | > 100 µM | 38.8 µM | > 100 µM | 18 µM | 44.6 µM | 25.7 µM | 57 µM | – | – | 37.2 µM | > 100 µM | 22.4 µM | > 100 µM | 33.5 µM | > 100 µM | 50.7 µM | > 100 µM | 21.8 µM | 39.1 µM
10 | OCC#Cc1ccccc1C#Cc1ccc(C#Cc2ccccc2)cc1 | 3.92 µM | 26.3 µM | 17.3 µM | 34.3 µM | 24.6 µM | > 100 µM | 17.5 µM | 43.9 µM | – | – | 17.6 µM | 59.1 µM | 20.4 µM | > 100 µM | 23.1 µM | 57 µM | 51.4 µM | > 100 µM | 11.8 µM | 25.8 µM
11 | C=C1CC/C=C(\C)CC[C@H](C(=C)C)[C@@H](O)/C=C(/CO)CCC1O (some centres not stated) | 24.5 µM | 69.7 µM | 4.58 µM | > 100 µM | 50.4 µM | > 100 µM | 71.7 µM | > 100 µM | – | – | > 100 µM | > 100 µM | > 100 µM | > 100 µM | > 100 µM | > 100 µM | > 100 µM | > 100 µM | 35.1 µM | > 100 µM
12 | COc1ccc(-c2cc(-c3ccccc3)nc(NCCNc3ccnc4cc(Cl)ccc34)n2)cc1 | 0.323 µM | 1.03 µM | 1.84 µM | 3.52 µM | 1.55 µM | 3.26 µM | – | – | 1.7 µM | 3.42 µM | 1.71 µM | 3.79 µM | 1.93 µM | 3.71 µM | – | – | 1.84 µM | 3.43 µM | 1.79 µM | 3.3 µM

— PubChem BioAssay (NCI)
